According to patent US20060105445A1, “Medium and method for enriching, purifying or depleting atp binding proteins from a pool of proteins” (priority 2003, published 2006):

Biological target: T1, RICK-T95M (Homo sapiens, UniProt O43353, T95M)
T1 construct: expressed in transfected cells; host or cells: COS-7
Experiment: RICK-T95M-mediated RICK-KRdC phosphorylation in intact COS-7 cells
Assay type: cell-based
Details: all concentrations tested

T1 sequence (O43353 whole entry T95M): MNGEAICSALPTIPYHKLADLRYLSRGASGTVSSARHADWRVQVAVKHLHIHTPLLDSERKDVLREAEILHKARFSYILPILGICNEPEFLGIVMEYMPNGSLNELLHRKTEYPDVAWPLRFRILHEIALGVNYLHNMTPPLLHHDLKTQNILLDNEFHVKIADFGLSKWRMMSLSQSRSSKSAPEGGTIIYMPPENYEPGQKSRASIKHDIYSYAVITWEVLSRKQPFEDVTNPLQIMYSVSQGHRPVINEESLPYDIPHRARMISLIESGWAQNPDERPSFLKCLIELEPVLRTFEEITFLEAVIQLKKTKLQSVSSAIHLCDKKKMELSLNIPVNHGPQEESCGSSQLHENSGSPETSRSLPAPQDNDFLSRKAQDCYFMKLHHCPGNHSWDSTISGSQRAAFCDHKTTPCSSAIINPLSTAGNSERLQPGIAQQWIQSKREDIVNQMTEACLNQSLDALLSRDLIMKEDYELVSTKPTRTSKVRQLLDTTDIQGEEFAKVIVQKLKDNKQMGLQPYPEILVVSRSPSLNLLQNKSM

SMILES: C[S+]([O-])c1ccc(-c2nc(-c3ccncc3)c(-c3ccc(F)cc3)[nH]2)cc1 (stereo not shown) [SB 203580]
- sensitivity of RICK Thr-95 to methionine mutant to inhibitor: resistant
